According to PubChem BioAssay (NCI):
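Grown in 96-well plates, cells were treated for 48 hours with each compound at five concentrations. Insufficient inhibition: endpoint recorded as highest concentration tested. The concentration for 50% growth inhibition is given as GI50. At the TGI there is no net growth.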

What was measured:
Experiment in all cases: DTP human tumour cell line panel, 48 h
SK-MEL-5 melanoma = tested on: SK-MEL-5 melanoma
CCRF-CEM leukemia = tested on: CCRF-CEM leukemia
A498 renal = tested on: A498 renal
NCI/ADR-RES ovarian = tested on: NCI/ADR-RES ovarian
DU-145 prostate = tested on: DU-145 prostate
A549 NSCLC = tested on: A549 NSCLC
SF-295 CNS = tested on: SF-295 CNS
HOP-92 NSCLC = tested on: HOP-92 NSCLC

Structure (SMILES)	GI50 (SK-MEL-5 melanoma) [nM]	TGI (SK-MEL-5 melanoma) [µM]	GI50 (CCRF-CEM leukemia) [nM]	TGI (CCRF-CEM leukemia) [µM]	GI50 (A498 renal) [nM]	TGI (A498 renal) [µM]	GI50 (NCI/ADR-RES ovarian) [nM]	TGI (NCI/ADR-RES ovarian) [µM]	GI50 (DU-145 prostate) [µM]	TGI (DU-145 prostate) [µM]	GI50 (A549 NSCLC) [nM]	TGI (A549 NSCLC) [µM]	GI50 (SF-295 CNS) [nM]	TGI (SF-295 CNS) [µM]	GI50 (HOP-92 NSCLC) [nM]	TGI (HOP-92 NSCLC) [µM]
Cc1cc(S(=O)(=O)/N=C(\N)n2nc(C)c(C)c2C)c(SCc2ccccc2)cc1Cl	5650	> 100	4490	> 100	> 100000	> 100	9220	> 100	> 100	> 100	14000	> 100	7990	> 100	3170	> 100
Nc1c(C(=O)Nc2cccc3ccccc23)sc2nc3c(cc12)CCCCC3	347	11.5	692	> 50	646	25.8	402	> 50	1.73	> 50	1900	> 50	421	> 50	375	> 50
CNC(=O)c1ccc(Nc2nc(OC3CCCC3)c3c(-c4ccc5nc(C)oc5c4)c[nH]c3n2)c(OC)c1	2120	> 100	124	> 44.4	547	> 100	1710	> 100	6.31	> 100	201	> 100	–	> 100	2540	> 100
CCCN1C(=O)/C(=C/c2ccc(O)cc2)SC1=Nc1ccccc1	22800	46	> 100000	> 100	–	–	20400	36.4	17.4	40.8	23900	58.2	27900	68.7	20300	46.5
O=S(=O)(NCCNc1cc(-c2cn(-c3ccccc3)nc2-c2cccc(O)c2)ccn1)c1ccc(F)cc1	1730	3.22	3280	17.3	2690	9.26	2690	–	3.35	16.8	3430	12.1	1750	3.9	2030	8.48
COc1ccc2c(c1)C(=O)c1c-2c(N2CCN(C(=O)CN(C)C)CC2)nc2ccccc12	18200	34.6	10700	27.1	15400	31.8	19700	57.1	14.8	35.2	13800	37	13700	41	5690	24.2
CCCCCCCCO/N=C\c1c2c(O)c3c(O)c(C)c4c(c3c1O)C(=O)C(C)(O/C=C\C(OC)C(C)C(OC(C)=O)C(C)C(O)C(C)C(O)C(C)/C=C\C=C(\C)C(=O)N2)O4 (stereo unspecified)	948	2.09	1950	9.82	1810	7.12	1930	6.99	1.8	6.93	1730	6.42	953	2.56	1380	5.32
Nc1ccn(C2OC(COP(=O)(O)O)C(O)C2O)c(=O)n1 (stereo unspecified)	–	> 100	–	0.0742	–	> 100	–	> 100	–	> 25.2	–	> 100	–	> 100	–	> 100
C[C@@H](Oc1cc(-c2cnn(C3CC4(CCNCC4)C3)c2)cnc1N)c1c(F)ccc(Cl)c1Cl	1470	2.85	1310	6.31	488	2.35	6610	21.2	2.27	11.5	1040	3.63	612	2.43	540	3.13
CCN(CC)CCCN1C(=O)c2c(c(C)c3c(oc4cc(O)ccc43)c2C)C1=O	1730	3.14	359	1.76	5060	16.9	–	–	1.83	3.32	1850	3.54	1840	3.32	1480	3.02
COc1ccc(C(=O)c2ccc(OC)cc2OC)cc1	2060	5.32	3230	> 100	5870	> 100	1590	5.98	3.52	25.6	5550	> 100	2330	9.4	1840	53.9
COc1cc(-c2ccc(-[n+]3nc(-c4ccc([N+](=O)[O-])cc4)nn3-c3ccc([N+](=O)[O-])cc3)c(OC)c2)ccc1-[n+]1nc(-c2ccc([N+](=O)[O-])cc2)nn1-c1ccc([N+](=O)[O-])cc1	4280	23.6	1080	> 100	2990	13.9	26900	> 100	2.9	9.29	3460	31.2	3070	16.1	–	–
CCOC(=O)c1ccc2[nH]c(Cc3[nH]c4ccc(C(=O)OCC)cc4c3C)c(C)c2c1	1220	14.5	1580	28.7	5450	23.1	2520	18.5	3.37	17.5	1050	5.87	1420	13.5	1950	8.99
Cc1cccc(Oc2ccc(Nc3ncnc4ccc(NC(=O)CN5CCN(C)CC5)cc34)cc2Cl)c1	1640	3.03	2060	5.21	1060	2.28	1730	4.24	1.18	2.57	–	–	1830	3.39	1170	2.59
